Measurements taken from US20240228493A1, “LRRK2 INHIBITORS AND USES THEREOF” (NEURON23, ICN., priority 2022, published 2024).

Tests used:
[1] = target: T1, wt human LRRK2, catalytic site (Homo sapiens, UniProt Q5S007); experiment: TR-FRET LanthaScreen Tb Kinase Activity Assay, LRRK2 inhibition; assay type: biochemical; settings: 2 nM wt human LRRK2, 400 nM peptide, 38 μM ATP
T1 construct: wt human LRRK2, catalytic site, catalytic site (ThermoFisher/USA); purchased ThermoFisher
Procedure, shortened: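 Fluorescein-ERM (LRRKtide) peptide (400 nM) phosphorylated by 2 nM wt human LRRK2 catalytic site with 38 μM ATP in 1× Kinase Buffer A, 120 min at room temperature after 15 min compound–kinase preincubation. EDTA plus Tb-anti-pLRRKtide antibody added, read after 60 min; inhibition from TR-FRET emission ratios.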

[2] = system: human hepatocyte; experiment: Human hepatocyte stability, predicted hepatic clearance (h-Hept CL predict); assay type: in vitro ADME; settings: human hepatocytes, 0.5×10^6 cells/mL, 1 μM, values without asterisk
Procedure, shortened: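 Cryopreserved human hepatocytes, 0.5×10^6 viable cells/mL in William's E/GlutaMAX, incubated with compound at 1 μM final, duplicates. Sampling at 0-120 min, LC/MS/MS parent loss gives t1/2, converted to CLint and scaled to predicted hepatic clearance (well-stirred model, fub assumed 1).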

T1 sequence (Q5S007 1879-2138 limits assumed): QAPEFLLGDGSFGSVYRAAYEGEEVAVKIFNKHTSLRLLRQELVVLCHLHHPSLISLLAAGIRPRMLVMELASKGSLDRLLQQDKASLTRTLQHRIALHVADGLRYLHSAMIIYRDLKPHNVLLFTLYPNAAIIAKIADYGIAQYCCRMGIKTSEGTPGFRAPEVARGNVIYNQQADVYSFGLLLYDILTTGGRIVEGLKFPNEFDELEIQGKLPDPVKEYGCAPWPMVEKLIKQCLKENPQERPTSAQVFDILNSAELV

| IC50 [1] [nM] | hHep Cl (mL/min/kg) [2] | Compound |
| --- | --- | --- |
| < 1 | L (L (Low Cl)”: Hep Cl (mL/min/kg)<6.3) | Cc1n[nH]c2c1N=C(c1c(F)cccc1F)Nc1cnc(N3CCS(=O)(=O)CC3)cc1-2 [Example 2, 4-[8-(2,6-difluorophenyl)-5-methyl-3,4,7,9,12-pentazatricyclo[8.4.0.02,6]tetradeca-1(10),2(6),4,7,11,13-hexaen-13-y1]-1,4-thiazinane 1,1-dioxide] |
| 1 to 100 | L (L (Low Cl)”: Hep Cl (mL/min/kg)<6.3) | Cc1n[nH]c2c1N=C(c1c(F)cccc1F)Nc1cnc(N3C[C@@H]4C[C@H]3CO4)cc1-2 [Example 6, (1S,4S)-5-[8-(2,6-difluorophenyl)-5-methyl-3,4,7,9,12-pentazatricyclo[8.4.0.02,6]tetradeca-1(10),2(6),4,7,11,13-hexaen-13-y1]-2-oxa-5-azabicyclo[2.2.1]heptane] |
| < 1 | L (L (Low Cl)”: Hep Cl (mL/min/kg)<6.3) | [2H]C1([2H])OC([2H])([2H])C([2H])([2H])N(c2cc3c(cn2)NC(c2c(F)cccc2F)=Nc2c(C)n[nH]c2-3)C1([2H])[2H] [Example 14, 2,2,3,3,5,5,6,6-octadeuterio-4-[8-(2,6-difluorophenyl)-5-methyl-3,4,7,9,12-pentazatricyclo[8.4.0.02,6]tetradeca-1(10),2(6),4,7,11,13-hexaen-13-yl]morpholine] |
| < 1 | L (L (Low Cl)”: Hep Cl (mL/min/kg)<6.3) | Cc1n[nH]c2c1N=C(c1c(F)cccc1F)Nc1cnc(N3CCC[C@@H](C#N)C3)cc1-2 [Example 18, (3R)-1-[8-(2,6-difluorophenyl)-5-methyl-3,4,7,9,12-pentazatricyclo[8.4.0.02,6]tetradeca-1(10),2(6),4,7,11,13-hexaen-13-yl]piperidine-3-carbonitrile] |
| < 1 | L (L (Low Cl)”: Hep Cl (mL/min/kg)<6.3) | [2H]C([2H])([2H])c1n[nH]c2c1N=C(c1c(F)cccc1F)Nc1cnc(N3CCO[C@H](C)C3)cc1-2 [Example 27, (2R)-4-[8-(2,6-difluorophenyl)-5-(trideuteriomethyl)-3,4,7,9,12-pentazatricyclo[8.4.0.02,6]tetradeca-1(10),2(6),4,7,11,13-hexaen-13-y1]-2-methyl-morpholine] |

The remaining lines, values behind:

| Compound | IC50 [1] [nM] | hHep Cl (mL/min/kg) [2] |
| --- | --- | --- |
| Fc1cccc(F)c1C1=Nc2c(Cl)n[nH]c2-c2cc(N3CCOCC3)ccc2N1 (single isomer, unassigned) [Example 35, 4-(3-chloro-5-(2,6-difluorophenyl)-1,6-dihydrobenzo[d]pyrazolo[3,4-f][1,3]diazepin-9-y1)morpholine] | < 1 | L (L (Low Cl)”: Hep Cl (mL/min/kg)<6.3) |
| Cc1n[nH]c2c1N=C(c1c(F)cccc1F)Nc1ccc(N3CCO[C@H](C(C)(C)O)C3)cc1-2 (single isomer, unassigned) [Example 36] | 1 to 100 | L (L (Low Cl)”: Hep Cl (mL/min/kg)<6.3) |
| Cc1n[nH]c2c1N=C(c1c(F)cccc1F)Nc1c-2cc(N2CCO[C@@H](C(C)(C)O)C2)nc1C (single isomer, unassigned) [Example 39] | < 1 | L (L (Low Cl)”: Hep Cl (mL/min/kg)<6.3) |
| [2H]C1([2H])OC([2H])([2H])C([2H])([2H])N(c2cc3c(cn2)NC(c2c(F)cccc2F)=Nc2cn[nH]c2-3)C1([2H])[2H] [Example 20, 2,2,3,3,5,5,6,6-octadeuterio-4-[8-(2,6-difluorophenyl)-3,4,7,9,12-pentazatricyclo[8.4.0.02,6]tetradeca-1(10),2(6),4,7,11,13-hexaen-13-yl]morpholine] | < 1 | L (L (Low Cl)”: Hep Cl (mL/min/kg)<6.3) |
| Fc1cccc(F)c1C1=Nc2c(Cl)n[nH]c2-c2cc(N3CCOCC3)ncc2N1 [Example 23, 4-(3-chloro-5-(2,6-difluorophenyl)-1,6-dihydropyrazolo[4,3-d]pyrido[4,3-f][1,3]diazepin-9-yl)morpholine] | < 1 | L (L (Low Cl)”: Hep Cl (mL/min/kg)<6.3) |
| C[C@H]1CN(c2cc3c(cn2)NC(c2c(F)cccc2F)=Nc2c(Cl)n[nH]c2-3)C[C@H](C)O1 [Example 26, (2S,6S)-4-(3-chloro-5-(2,6-difluorophenyl)-1,6-dihydropyrazolo[4,3-d]pyrido[4,3-f][1,3]diazepin-9-yl)-2,6-dimethylmorpholine] | < 1 | I (I (Intermediate Cl)”: 6.3≤Hep Cl (mL/min/kg)≤14.7) |
| Cc1n[nH]c2c1N=C(c1c(F)cccc1F)Nc1cnc(-c3cnn(CC(F)F)c3)cc1-2 [Example 28, 13-[1-(2,2-difluoroethyl)pyrazol-4-y1]-8-(2,6-difluorophenyl)-5-methyl-3,4,7,9,12-pentazatricyclo[8.4.0.02,6]tetradeca-1(10),2(6),4,7,11,13-hexaene] | < 1 | L (L (Low Cl)”: Hep Cl (mL/min/kg)<6.3) |
| Fc1cccc(F)c1C1=Nc2cn[nH]c2-c2cc(N3CCOCC3)ncc2N1 [Example 33, 4-[8-(2,6-difluorophenyl)-3,4,7,9,12-pentazatricyclo[8.4.0.02,6]tetradeca-1(10),2(6),4,7,11,13-hexaen-13-yl]morpholine] | < 1 | L (L (Low Cl)”: Hep Cl (mL/min/kg)<6.3) |
| Cc1n[nH]c2c1N=C(c1c(F)cccc1F)Nc1c-2cc(N2CCO[C@@H](CO)C2)nc1C [Example 37, (R)-(4-(5-(2,6-difluorophenyl)-3,7-dimethyl-1,6-dihydropyrazolo[4,3-d]pyrido[4,3-f][1,3]diazepin-9-yl)morpholin-2-y1)methanol] | < 1 | L (L (Low Cl)”: Hep Cl (mL/min/kg)<6.3) |
| Cc1n[nH]c2c1N=C(c1c(F)cccc1F)Nc1c-2cc(N2CCC(C)(O)CC2)nc1C [Example 41, 1-(5-(2,6-difluorophenyl)-3,7-dimethyl-1,6-dihydropyrazolo[4,3-d]pyrido[4,3-f][1,3]diazepin-9-yl)-4-methylpiperidin-4-ol] | 1 to 100 | I (I (Intermediate Cl)”: 6.3≤Hep Cl (mL/min/kg)≤14.7) |
| Cn1cc(-c2cc3c(cn2)NC(c2c(F)cccc2F)=Nc2c(Cl)n[nH]c2-3)cn1 [Example 54, 3-chloro-5-(2,6-difluorophenyl)-9-(1-methyl-1H-pyrazol-4-yl)-1,6-dihydropyrazolo[4,3-d]pyrido[4,3-f][1,3]diazepine] | < 1 | I (I (Intermediate Cl)”: 6.3≤Hep Cl (mL/min/kg)≤14.7) |
